Patent US8410273B2, “Cyclic compound having substituted phenyl group” (Daiichi Sankyo Company, Limited, priority 2009, dated 2013)

Test system: female F344 rats
Experiment: Effect on bone density (femur, DXA) after oophorectomy or sham surgery
Assay type: in vivo
Details: at 3 mg/kg or less, orally once a day, six days a week, six weeks
Procedure: Eight to 12 week old female F344 rats were purchased from Charles River Laboratories and used in the following experiment. Rats were anesthetized with an intraperitoneal administration of 40 mg/kg of Somnopentyl (Kyoritsu Seiyaku Corporation), and then oophorectomy or sham surgery was performed. From the day after surgery, a suspension of the test compound in a 0.5% methyl cellulose solution (Wako Pure Chemical Industries, Ltd. Cat. No. 133-14255) was orally administered once a day, six days a week. Six weeks after administration, the rats were euthanized by removal of whole blood from the lower abdominal aorta under Somnopentyl anesthesia, and the left and right femur was excised.
After removal of soft tissues, the bone density of the femur thus excised was measured by a DXA apparatus, DCS-600R (Aloka Co., Ltd.). The bone density was assessed in the whole femur as well as in three equal sections of the whole femur, namely the proximal end, the shaft, and the distal end.

Compound | bone density of the femur
NC(=O)c1ccc2cncc(-c3ccc(OCCOC4CCOCC4)cc3)c2n1 [Example 9, 8-{4-[2-(Tetrahydro-2H-pyran-4-yloxy)ethoxy]phenyl}-1,6-naphthyridine-2-carboxamide] | significantly increased the bone density
Cn1ccc2cc(-c3cncc4ccc(C(N)=O)cc34)ccc21 [Example 33] | significantly increased the bone density
NC(=O)c1ccc2cncc(-c3ccc(OCCO)cc3)c2c1 [Example 36] | significantly increased the bone density
NC(=O)c1ccc2cncc(-c3ccc(Cl)cc3)c2c1 [Example 118] | significantly increased the bone density
